Measurements reported in patent EP4722207A1, “OXOISOINDOLINYL-SUBSTITUTED TETRAHYDROPYRIMIDINEDIONE DERIVATIVE AND USE THEREOF” (Gluetacs Therapeutics (Shanghai) Co., Ltd., priority 2023, dated 2024).

How the values were obtained:
Assay type in all cases: cell-based
Settings in all cases: 24 hours of compound treatment, 50 nM and 500 nM
WEE1 = biological target: T1, WEE1 (Homo sapiens, UniProt P30291+Q96SW2); assay: Western-blot assay, substrate protein degradation in hPBMCs: WEE1
T1 construct: effects of the compounds of the present disclosure on the expression of target proteins in cells; endogenous in cells; host or cells: human PBMCs (hPBMCs)

IKZF2 = biological target: T2, IKZF2 (Homo sapiens, UniProt Q96SW2+Q9UKS7); assay: Western-blot assay, substrate protein degradation in hPBMCs: IKZF2
T2 construct: effects of the compounds of the present disclosure on the expression of target proteins in cells; endogenous in cells; host or cells: human PBMCs (hPBMCs)

IKZF1 = biological target: T3, IKZF1 (Homo sapiens, UniProt Q13422+Q96SW2); assay: Western-blot assay, substrate protein degradation in hPBMCs: IKZF1
T3 construct: effects of the compounds of the present disclosure on the expression of target proteins in cells; endogenous in cells; host or cells: human PBMCs (hPBMCs)

CK1α = biological target: T4, CK1α (Homo sapiens, UniProt P48729+Q96SW2); assay: Western-blot assay, substrate protein degradation in hPBMCs: CK1α
T4 construct: effects of the compounds of the present disclosure on the expression of target proteins in cells; endogenous in cells; host or cells: human PBMCs (hPBMCs)

GSPT1 = biological target: T5, GSPT1 (Homo sapiens, UniProt P15170+Q96SW2); assay: Western-blot assay, substrate protein degradation in hPBMCs: GSPT1
T5 construct: effects of the compounds of the present disclosure on the expression of target proteins in cells; endogenous in cells; host or cells: human PBMCs (hPBMCs)

IKZF3 = biological target: T6, IKZF3 (Homo sapiens, UniProt Q96SW2+Q9UKT9); assay: Western-blot assay, substrate protein degradation in hPBMCs: IKZF3
T6 construct: effects of the compounds of the present disclosure on the expression of target proteins in cells; endogenous in cells; host or cells: human PBMCs (hPBMCs)
T6 sequence (Q9UKT9 whole entry): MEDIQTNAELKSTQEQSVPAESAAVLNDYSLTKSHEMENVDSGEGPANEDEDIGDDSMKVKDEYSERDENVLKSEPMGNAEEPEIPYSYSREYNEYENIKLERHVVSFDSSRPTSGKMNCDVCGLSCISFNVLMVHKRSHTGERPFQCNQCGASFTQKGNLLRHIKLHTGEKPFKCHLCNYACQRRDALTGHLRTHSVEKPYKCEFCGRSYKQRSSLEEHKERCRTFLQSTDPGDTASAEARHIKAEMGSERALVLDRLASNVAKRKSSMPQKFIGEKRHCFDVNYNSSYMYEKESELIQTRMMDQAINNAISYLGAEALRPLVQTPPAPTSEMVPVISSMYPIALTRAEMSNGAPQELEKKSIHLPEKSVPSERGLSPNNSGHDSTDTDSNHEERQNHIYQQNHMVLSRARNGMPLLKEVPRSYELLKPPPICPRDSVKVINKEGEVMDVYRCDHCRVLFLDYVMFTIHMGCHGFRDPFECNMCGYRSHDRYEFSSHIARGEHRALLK
T6 sequence (Q96SW2 whole entry): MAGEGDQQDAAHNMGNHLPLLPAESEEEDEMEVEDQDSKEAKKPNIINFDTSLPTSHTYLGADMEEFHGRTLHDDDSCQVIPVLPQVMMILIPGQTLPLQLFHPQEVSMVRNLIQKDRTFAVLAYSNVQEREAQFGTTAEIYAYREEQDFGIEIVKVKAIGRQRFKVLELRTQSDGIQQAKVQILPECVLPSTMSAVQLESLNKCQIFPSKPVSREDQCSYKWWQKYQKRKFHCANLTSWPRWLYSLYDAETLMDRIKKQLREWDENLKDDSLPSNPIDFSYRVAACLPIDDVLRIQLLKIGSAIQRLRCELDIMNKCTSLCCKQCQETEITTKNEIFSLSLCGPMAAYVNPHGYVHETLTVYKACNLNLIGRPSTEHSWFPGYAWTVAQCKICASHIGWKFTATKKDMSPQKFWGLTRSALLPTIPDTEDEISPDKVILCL
T6 sequence (Q16531 whole entry partner): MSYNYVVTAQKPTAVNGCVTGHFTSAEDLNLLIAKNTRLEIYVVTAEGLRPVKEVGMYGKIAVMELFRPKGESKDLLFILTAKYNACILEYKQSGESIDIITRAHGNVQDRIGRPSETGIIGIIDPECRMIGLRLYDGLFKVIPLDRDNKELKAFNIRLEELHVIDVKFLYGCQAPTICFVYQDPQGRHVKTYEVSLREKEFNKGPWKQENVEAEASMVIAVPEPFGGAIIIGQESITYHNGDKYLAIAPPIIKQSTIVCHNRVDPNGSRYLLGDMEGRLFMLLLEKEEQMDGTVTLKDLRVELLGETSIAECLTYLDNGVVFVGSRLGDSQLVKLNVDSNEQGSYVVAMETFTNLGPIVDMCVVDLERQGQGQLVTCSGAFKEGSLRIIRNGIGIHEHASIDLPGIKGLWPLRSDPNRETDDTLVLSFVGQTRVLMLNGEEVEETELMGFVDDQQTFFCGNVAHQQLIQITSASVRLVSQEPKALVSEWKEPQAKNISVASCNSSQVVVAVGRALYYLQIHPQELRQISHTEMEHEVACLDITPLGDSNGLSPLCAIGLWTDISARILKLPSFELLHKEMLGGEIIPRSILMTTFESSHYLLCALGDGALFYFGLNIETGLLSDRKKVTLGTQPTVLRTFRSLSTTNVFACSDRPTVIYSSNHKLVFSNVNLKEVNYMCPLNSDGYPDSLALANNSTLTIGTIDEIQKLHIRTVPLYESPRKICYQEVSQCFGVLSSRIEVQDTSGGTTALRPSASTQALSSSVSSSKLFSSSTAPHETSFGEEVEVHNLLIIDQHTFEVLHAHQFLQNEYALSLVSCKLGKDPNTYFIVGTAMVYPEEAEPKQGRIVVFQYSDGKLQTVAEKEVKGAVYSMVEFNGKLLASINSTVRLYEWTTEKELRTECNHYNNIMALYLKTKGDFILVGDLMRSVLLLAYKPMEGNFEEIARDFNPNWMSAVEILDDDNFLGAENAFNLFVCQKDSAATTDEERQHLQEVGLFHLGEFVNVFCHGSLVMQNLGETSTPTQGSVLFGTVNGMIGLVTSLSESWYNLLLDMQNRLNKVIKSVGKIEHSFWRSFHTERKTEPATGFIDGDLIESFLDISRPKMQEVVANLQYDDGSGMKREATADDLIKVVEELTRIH

T4 sequence (P48729 whole entry): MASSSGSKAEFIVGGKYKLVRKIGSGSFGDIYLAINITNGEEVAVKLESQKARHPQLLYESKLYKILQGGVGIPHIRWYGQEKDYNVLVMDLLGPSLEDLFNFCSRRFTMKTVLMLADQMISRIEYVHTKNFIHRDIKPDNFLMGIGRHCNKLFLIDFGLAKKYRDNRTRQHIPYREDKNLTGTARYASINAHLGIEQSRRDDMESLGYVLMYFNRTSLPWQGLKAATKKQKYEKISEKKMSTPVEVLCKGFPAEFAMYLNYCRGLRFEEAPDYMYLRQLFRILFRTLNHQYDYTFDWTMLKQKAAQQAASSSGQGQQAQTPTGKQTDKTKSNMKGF
T4 sequence (Q96SW2 whole entry): as the sequence (Q96SW2 whole entry) above
T4 sequence (Q16531 whole entry partner): as the sequence (Q16531 whole entry partner) above
T2 sequence (Q9UKS7 whole entry): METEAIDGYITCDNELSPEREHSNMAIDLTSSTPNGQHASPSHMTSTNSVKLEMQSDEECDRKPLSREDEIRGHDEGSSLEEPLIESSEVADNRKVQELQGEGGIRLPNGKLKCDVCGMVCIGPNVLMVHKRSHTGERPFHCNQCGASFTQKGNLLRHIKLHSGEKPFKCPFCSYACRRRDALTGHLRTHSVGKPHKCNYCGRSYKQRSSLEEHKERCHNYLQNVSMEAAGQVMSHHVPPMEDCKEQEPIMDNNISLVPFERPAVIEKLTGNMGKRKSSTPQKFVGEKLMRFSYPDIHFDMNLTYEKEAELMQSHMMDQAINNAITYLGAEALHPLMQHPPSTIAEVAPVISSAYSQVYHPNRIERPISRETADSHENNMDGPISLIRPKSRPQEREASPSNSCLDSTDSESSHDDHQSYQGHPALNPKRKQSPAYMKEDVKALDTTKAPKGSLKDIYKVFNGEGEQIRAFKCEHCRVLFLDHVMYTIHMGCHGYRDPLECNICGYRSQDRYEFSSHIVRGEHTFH
T2 sequence (Q96SW2 whole entry): as the sequence (Q96SW2 whole entry) above
T2 sequence (Q16531 whole entry partner): as the sequence (Q16531 whole entry partner) above
T1 sequence (P30291 whole entry): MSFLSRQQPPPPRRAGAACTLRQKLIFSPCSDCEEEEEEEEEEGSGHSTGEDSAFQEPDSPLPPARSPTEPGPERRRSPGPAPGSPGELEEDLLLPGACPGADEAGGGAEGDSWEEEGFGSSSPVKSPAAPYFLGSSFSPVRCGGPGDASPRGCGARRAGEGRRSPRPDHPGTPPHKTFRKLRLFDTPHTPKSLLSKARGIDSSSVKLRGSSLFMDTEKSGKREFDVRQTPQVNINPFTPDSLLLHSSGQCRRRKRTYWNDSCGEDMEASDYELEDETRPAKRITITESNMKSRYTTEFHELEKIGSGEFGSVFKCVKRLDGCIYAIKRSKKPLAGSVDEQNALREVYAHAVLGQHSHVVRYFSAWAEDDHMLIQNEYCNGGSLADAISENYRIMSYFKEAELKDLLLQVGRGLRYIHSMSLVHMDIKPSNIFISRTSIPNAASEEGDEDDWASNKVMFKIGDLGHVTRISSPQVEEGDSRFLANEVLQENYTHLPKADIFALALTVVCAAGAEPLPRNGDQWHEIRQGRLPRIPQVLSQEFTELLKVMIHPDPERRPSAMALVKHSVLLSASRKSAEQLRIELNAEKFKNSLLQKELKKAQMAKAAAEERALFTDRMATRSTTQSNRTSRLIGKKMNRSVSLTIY
T1 sequence (Q96SW2 whole entry): as the sequence (Q96SW2 whole entry) above
T1 sequence (Q16531 whole entry partner): as the sequence (Q16531 whole entry partner) above
T5 sequence (P15170 whole entry): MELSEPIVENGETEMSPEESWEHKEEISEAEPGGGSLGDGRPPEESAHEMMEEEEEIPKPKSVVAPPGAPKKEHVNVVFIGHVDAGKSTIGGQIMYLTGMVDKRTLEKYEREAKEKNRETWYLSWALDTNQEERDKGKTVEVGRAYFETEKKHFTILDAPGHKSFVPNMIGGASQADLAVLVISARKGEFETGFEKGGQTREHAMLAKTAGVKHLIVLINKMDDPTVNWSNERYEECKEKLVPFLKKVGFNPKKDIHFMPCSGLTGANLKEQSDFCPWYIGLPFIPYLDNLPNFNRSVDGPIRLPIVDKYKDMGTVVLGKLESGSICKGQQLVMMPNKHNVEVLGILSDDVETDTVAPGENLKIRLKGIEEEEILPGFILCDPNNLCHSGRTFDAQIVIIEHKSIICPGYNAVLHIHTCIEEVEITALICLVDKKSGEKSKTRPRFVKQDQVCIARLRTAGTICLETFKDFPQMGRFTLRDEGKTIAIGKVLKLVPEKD
T5 sequence (Q96SW2 whole entry): as the sequence (Q96SW2 whole entry) above
T5 sequence (Q16531 whole entry partner): as the sequence (Q16531 whole entry partner) above

SMILES	substrate protein remaining % WEE1 (WEE1)	substrate protein remaining % IKZF2 (IKZF2)	substrate protein remaining % IKZF1 (IKZF1)	substrate protein remaining % CK1α (CK1α)	substrate protein remaining % GSPT1 (GSPT1)	substrate protein remaining % IKZF3 (IKZF3)
O=C1CCN(N2Cc3cc(CN4C5CCC4CN(c4cccc(Cl)c4Cl)C5)ccc3C2=O)C(=O)N1 [GT-07430, 1-(5-((3-(2,3-dichlorophenyl)-3,8-diazabicyclo[3.2.1]octan-8-yl)methyl)-1-oxoisoindolin-2-yl)dihydropyrimidine-2,4(1H,3H)-dione]	B (80%< substrate protein remaining %≤ 100%)	B (80%< substrate protein remaining %≤ 100%)	A (0% ≤ substrate protein remaining % ≤ 80%)	A (0% ≤ substrate protein remaining % ≤ 80%)	A (0% ≤ substrate protein remaining % ≤ 80%)	B (80%< substrate protein remaining %≤ 100%)
O=C1CCN(N2Cc3cc(CN4CCCN(c5cccc(Cl)c5Cl)CC4)ccc3C2=O)C(=O)N1 [GT-07431, 1-(5-((4-(2,3-dichlorophenyl)-1,4-diazepan-1-yl)methyl)-1-oxoisoindolin-2-yl)dihydropyrimidine-2,4(1H,3H)-dione]	B (80%< substrate protein remaining %≤ 100%)	B (80%< substrate protein remaining %≤ 100%)	A (0% ≤ substrate protein remaining % ≤ 80%)	A (0% ≤ substrate protein remaining % ≤ 80%)	B (80%< substrate protein remaining %≤ 100%)	B (80%< substrate protein remaining %≤ 100%)
CC1CN(C(c2ccccc2)c2ccccc2)CC(C)N1Cc1ccc2c(c1)CN(N1CCC(=O)NC1=O)C2=O (stereo not drawn) [GT-07433, 1-(5-((4-benzhydryl-2,6-dimethylpiperazin-1-yl)methyl)-1-oxoisoindolin-2-yl)dihydropyrimidine-2,4(1H,3H)-dione]	B (80%< substrate protein remaining %≤ 100%)	A (0% ≤ substrate protein remaining % ≤ 80%)	B (80%< substrate protein remaining %≤ 100%)	A (0% ≤ substrate protein remaining % ≤ 80%)	B (80%< substrate protein remaining %≤ 100%)	B (80%< substrate protein remaining %≤ 100%)
O=C1CCN(N2C(=O)c3ccc(CN4CC5CC(C4)N5c4cccc(Cl)c4Cl)cc3C2=O)C(=O)N1 [GT-07434, 5-((6-(2,3-dichlorophenyl)-3,6-diazabicyclo[3.1.1]heptan-3-yl)methyl)-2-(2,4-dioxotetrahydropyrimidin-1(2H)-yl)isoindoline-1,3-dione]	B (80%< substrate protein remaining %≤ 100%)	B (80%< substrate protein remaining %≤ 100%)	B (80%< substrate protein remaining %≤ 100%)	A (0% ≤ substrate protein remaining % ≤ 80%)	B (80%< substrate protein remaining %≤ 100%)	B (80%< substrate protein remaining %≤ 100%)
O=C1CCN(N2C(=O)c3ccc(CN4C[C@H]5C[C@@H]4CN5c4cccc(Cl)c4Cl)cc3C2=O)C(=O)N1 [GT-07435, 5-(((1R,4R)-5-(2,3-dichlorophenyl)-2,5-diazabicyclo[2.2.1]heptan-2-yl)methyl)-2-(2,4-dioxotetrahydropyrimidin-1(2H)-yl)isoindoline-1,3-dione]	B (80%< substrate protein remaining %≤ 100%)	B (80%< substrate protein remaining %≤ 100%)	B (80%< substrate protein remaining %≤ 100%)	A (0% ≤ substrate protein remaining % ≤ 80%)	B (80%< substrate protein remaining %≤ 100%)	B (80%< substrate protein remaining %≤ 100%)
O=C1CCN(N2C(=O)c3ccc(CN4CC5CCC4CN5c4cccc(Cl)c4Cl)cc3C2=O)C(=O)N1 (stereo not drawn) [GT-07436, 5-((5-(2,3-dichlorophenyl)-2,5-diazabicyclo[2.2.2]octan-2-yl)methyl)-2-(2,4-dioxotetrahydropyrimidin-1(2H)-yl)isoindoline-1,3-dione]	B (80%< substrate protein remaining %≤ 100%)	A (0% ≤ substrate protein remaining % ≤ 80%)	B (80%< substrate protein remaining %≤ 100%)	A (0% ≤ substrate protein remaining % ≤ 80%)	B (80%< substrate protein remaining %≤ 100%)	B (80%< substrate protein remaining %≤ 100%)
O=C1CCN(N2C(=O)c3ccc(CN4CC5CCC(C4)N5c4cccc(Cl)c4Cl)cc3C2=O)C(=O)N1 [GT-07437, 5-((8-(2,3-dichlorophenyl)-3,8-diazabicyclo[3.2.1]octan-3-yl)methyl)-2-(2,4-dioxotetrahydropyrimidin-1(2H)-yl)isoindoline-1,3-dione]	A (0% ≤ substrate protein remaining % ≤ 80%)	B (80%< substrate protein remaining %≤ 100%)	B (80%< substrate protein remaining %≤ 100%)	A (0% ≤ substrate protein remaining % ≤ 80%)	A (0% ≤ substrate protein remaining % ≤ 80%)	B (80%< substrate protein remaining %≤ 100%)
O=C1CCN(N2C(=O)c3ccc(CN4C5CCC4CN(c4cccc(Cl)c4Cl)C5)cc3C2=O)C(=O)N1 [GT-07438, 5-((3-(2,3-dichlorophenyl)-3,8-diazabicyclo[3.2.1]octan-8-yl)methyl)-2-(2,4-dioxotetrahydropyrimidin-1(2H)-yl)isoindoline-1,3-dione]	A (0% ≤ substrate protein remaining % ≤ 80%)	B (80%< substrate protein remaining %≤ 100%)	B (80%< substrate protein remaining %≤ 100%)	A (0% ≤ substrate protein remaining % ≤ 80%)	A (0% ≤ substrate protein remaining % ≤ 80%)	B (80%< substrate protein remaining %≤ 100%)
O=C1CCN(N2C(=O)c3ccc(CN4CCCN(c5cccc(Cl)c5Cl)CC4)cc3C2=O)C(=O)N1 [GT-07439, 5-((4-(2,3-dichlorophenyl)-1,4-diazepan-1-yl)methyl)-2-(2,4-dioxotetrahydropyrimidin-1(2H)-yl)isoindoline-1,3-dione]	B (80%< substrate protein remaining %≤ 100%)	B (80%< substrate protein remaining %≤ 100%)	B (80%< substrate protein remaining %≤ 100%)	A (0% ≤ substrate protein remaining % ≤ 80%)	A (0% ≤ substrate protein remaining % ≤ 80%)	B (80%< substrate protein remaining %≤ 100%)
O=C1CCN(N2C(=O)c3ccc(CN4CC=C(c5ccnc(Cl)c5Cl)CC4)cc3C2=O)C(=O)N1 [GT-07440, 5-((2',3'-dichloro-3,6-dihydro-[4,4'-bipyridin]-1(2H)-yl)methyl)-2-(2,4-dioxotetrahydropyrimidin-1(2H)-yl)isoindoline-1,3-dione]	A (0% ≤ substrate protein remaining % ≤ 80%)	B (80%< substrate protein remaining %≤ 100%)	B (80%< substrate protein remaining %≤ 100%)	A (0% ≤ substrate protein remaining % ≤ 80%)	A (0% ≤ substrate protein remaining % ≤ 80%)	B (80%< substrate protein remaining %≤ 100%)
O=C1CCN(N2C(=O)c3ccc(CN4CC=C(c5ccoc5)CC4)cc3C2=O)C(=O)N1 [GT-07442, 2-(2,4-dioxotetrahydropyrimidin-1(2H)-yl)-5-((4-(furan-3-yl)-3,6-dihydropyridin-1(2H)-yl)methyl)isoindoline-1,3-dione]	A (0% ≤ substrate protein remaining % ≤ 80%)	B (80%< substrate protein remaining %≤ 100%)	B (80%< substrate protein remaining %≤ 100%)	B (80%< substrate protein remaining %≤ 100%)	A (0% ≤ substrate protein remaining % ≤ 80%)	A (0% ≤ substrate protein remaining % ≤ 80%)
O=C1CCN(N2C(=O)c3ccc(CN4CC=C(c5cncc(Cl)c5)CC4)cc3C2=O)C(=O)N1 [GT-07491, 5-((5-chloro-3',6'-dihydro-[3,4'-bipyridin]-1'(2'H)-yl)methyl)-2-(2,4-dioxotetrahydropyrimidin-1(2H)-yl)isoindoline-1,3-dione]	A (0% ≤ substrate protein remaining % ≤ 80%)	B (80%< substrate protein remaining %≤ 100%)	B (80%< substrate protein remaining %≤ 100%)	B (80%< substrate protein remaining %≤ 100%)	A (0% ≤ substrate protein remaining % ≤ 80%)	B (80%< substrate protein remaining %≤ 100%)
O=C1CCN(N2C(=O)c3ccc(CN4CC=C(c5ncccc5F)CC4)cc3C2=O)C(=O)N1 [GT-07492, 2-(2,4-dioxotetrahydropyrimidin-1(2H)-yl)-5-((3-fluoro-3',6'-dihydro-[2,4'-bipyridin]-1'(2'H)-yl)methyl)isoindoline-1,3-dione]	B (80%< substrate protein remaining %≤ 100%)	B (80%< substrate protein remaining %≤ 100%)	B (80%< substrate protein remaining %≤ 100%)	A (0% ≤ substrate protein remaining % ≤ 80%)	B (80%< substrate protein remaining %≤ 100%)	B (80%< substrate protein remaining %≤ 100%)
